From BindingDB's records for doi:10.1096/fasebj.10.12.8903510 (Roche Bioscience, 1996)

Target: 5-hydroxytryptamine receptor 4 (Cavia porcellus, UniProt O70528)
Sequence (O70528 whole entry): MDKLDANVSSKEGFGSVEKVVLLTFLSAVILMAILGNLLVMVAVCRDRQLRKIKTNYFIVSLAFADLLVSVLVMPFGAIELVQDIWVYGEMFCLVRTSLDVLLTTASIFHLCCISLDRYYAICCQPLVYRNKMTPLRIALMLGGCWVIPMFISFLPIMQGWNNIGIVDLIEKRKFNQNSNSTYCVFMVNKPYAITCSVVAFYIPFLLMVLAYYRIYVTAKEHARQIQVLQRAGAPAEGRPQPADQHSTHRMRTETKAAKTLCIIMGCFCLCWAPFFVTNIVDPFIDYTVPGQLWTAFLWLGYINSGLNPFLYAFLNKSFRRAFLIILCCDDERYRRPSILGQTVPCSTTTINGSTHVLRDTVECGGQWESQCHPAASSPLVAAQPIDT

Row | Compound | Ki [nM]
1 | CCN(CC)CCOC(=O)c1cc(Cl)c(N)cc1OC [SDZ-205557] | 2.51
2 | COc1cc(N)c(Cl)cc1C(=O)OCCCN1CCCCC1 | 3.98
3 | COc1cc(COc2cc(N)c(Cl)cc2C(=O)CCCCN2CCCCC2)cc(OC)c1 [RS-67532] | 1.99
4 | CCCCN1CCC(CNC(=O)c2c3n(c4ccccc24)CCCO3)CC1 [SB-207266] | 0.39
5 | CCCCN1CCC(COC(=O)c2cc(Cl)c(N)c3c2OCCO3)CC1 [CAS_121881] | 0.01
6 | COc1[nH]c2ccc(F)cc2c1C(=O)OCC1CCN(CCNS(C)(=O)=O)CC1 [GR-125487] | 0.03
7 | Cn1cc(C(=O)OCC2CCN(CCNS(C)(=O)=O)CC2)c2ccccc21 [GR 113808] | 0.06
